Measured values as given in US9724416B2, “Composition for improving or promoting hair growth containing, as active ingredients, photosensitizer irradiated with light and peptide, and method using same” (GWANGJU INSTITUTE OF SCIENCE AND TECHNOLOGY, priority 2012, dated 2017).
Entries after “also recorded” stand apart in the source; their conditions may differ.

How the values were obtained:
C57BL/6N mouse [1] = test: Hair growth promoting effects using a mouse (first test); assay type: in vivo; settings: for hair growth amounts compared to the control group: FIGS. 7 and 8 (day 10, day 12); for hair growth promoting effects with the naked eye compared to the untreated group: day 5 after sample treatment; for hair growth promoting effects compared to the untreated group: day 8 after sample treatment (FIG. 6B); for hair growth levels: until day 3, compared across groups incl. untreated
Protocol: (§1) ALA and ALA-peptide which were major test materials of the present invention were dissolved in pure water to a concentration of […] (100 ppm) to be used.
A 7-week-old C57BL/6N mouse (Jungang Lab. Animal Inc., KOR) was used for this study, and hair of the mouse's back was completely removed using a wax at the age of 49 days to 51 days at which the C57BL/6N mouse enters […] for the second time. In order to verify hair growth promoting effects of the test materials, it was treated once a day for 24 days. More particularly, ALA and the ALA-peptide were sprayed 3 times before LED radiation, and the LED treated groups were verified after being treated for 5 minutes.

C57BL/6N mouse [2] = test: Hair growth promoting effects using a mouse (second test); assay type: in vivo
Protocol: A 10-fold volume of primary distilled water was put into 100 g of Cimicifuga heracleifolia, Baikl skullcap, and Lance Asiabell dry matters, which were hot water extracted for 6 hours at 100° C. and were then filtered. The filtered extracts were pulverized through freeze-dried and then stored at 4° C. until used. The pulverized natural extracts were used in a mouse experiment at a concentration of 1 mg/ml.
as §1
A 7-week-old C57BL/6N mouse was used for this study, and hair of the mouse's back was completely removed using a wax at the age of 49 days to 51 days at which the C57BL/6N mouse enters […] for the second time. In order to verify hair growth promoting effects of the test materials, it was treated once a day for 24 days. More particularly, the ALA and ALA-peptide were sprayed 3 times before LED radiation, and the LED treated groups were verified after treated for 5 minutes.

| Compound | hair growth amounts compared to the control group (C57BL/6N mouse [1]; LED-Blue radiation) | hair growth promoting effects with the naked eye compared to the untreated group (C57BL/6N mouse [1]; LED-Blue radiation) | hair growth promoting effects compared to the untreated group (C57BL/6N mouse [1]; LED-Blue radiation) | hair growth promoting effects through continuous treatments (C57BL/6N mouse [1]; LED-Red radiation compared to LED-Blue radiation, FIGS. 9 to 14 (day 14 to day 24)) | hair growth amounts compared to the control group (C57BL/6N mouse [1]; LED-Red radiation) | hair growth promoting effects with the naked eye compared to the untreated group (C57BL/6N mouse [1]; LED-Red radiation) | hair growth promoting effects compared to the untreated group (C57BL/6N mouse [1]; LED-Red radiation) | hair growth promoting effects compared to the untreated group (in words) (C57BL/6N mouse [2]; LED-Red radiation, day 9 after sample treatment) | hair growth amounts compared to the untreated group (C57BL/6N mouse [2]; LED-Red radiation, extracts 1 mg/ml) | hair growth levels compared to untreated group (C57BL/6N mouse [2]; without LED radiation, FIGS. 16 to 19 (day 0 to day 7)) | hair loss phenomenon compared to other treated groups (C57BL/6N mouse [1]; LED-Blue radiation, day 30 of observation (FIG. 15)) | hair growth levels (C57BL/6N mouse [1]; LED-Blue radiation) | hair growth levels (C57BL/6N mouse [1]; LED-Red radiation) |
| --- | --- | --- | --- | --- | --- | --- | --- | --- | --- | --- | --- | --- | --- |
| 5-Aminolevulinic Acid (ALA)-Peptide (GHK) [ALA-peptide] | significant hair growth promoting effects | distinct differences | about 7 fold | more superior hair growth promoting effects than the LED-Blue+ALA-peptide treated group | significant hair growth promoting effects; also recorded: most superior hair growth promoting effect | distinct differences | about 10 fold | significant hair growth promoting effects | increasing effects in the significant hair growth amounts | little differences in hair growth levels | – | – | – |
| Cl.NCC(=O)CCC(=O)O [ALA, 5-aminolevulinic acid, reference compound] | – | – | – | – | – | – | – | – | – | – | considerable hair loss phenomenon | no differences in hair growth levels | no differences in hair growth levels |
